Laboratory results as given in patent publication US9393255B2, “Pharmaceutical compositions of cytidine analogs and methods of use thereof” (Celgene Corporation, priority 2011, dated 2016).
Values after ≈ are worked out from the molar mass of the structure shown. “Also recorded” adds a separate entry of the source.

Columns and labels:
MDS, AML, CML, ALL, NHL = settings: treatment of MDS; cited from earlier work
[1] = aqueous solubility of 5-azacytidine; type: physicochemical; settings: water
Protocol: In one embodiment, the reconstituted liquid dosage form is allowed to warm to room temperature (e.g., within a period of less than about 30 minutes) before parenteral use. […] In some embodiments, when the dosage form is at room temperature, about one-half of 5-azacytidine is dissolved, with about the other half present as solid in the suspension.
(§1) Generally at lower temperature a smaller amount of 5-azacytidine may be dissolved in water.

[2] = cold water reconstitution of Vidaza with refrigerated storage: potency, redispersibility time, appearance (Example F); type: physicochemical; settings: for stability time (not more than 3% loss of potency from Time 0): cold WFI (2-8° C.) reconstitution, refrigerated (2-8° C.) storage
Protocol: Sterility testing was performed at the end of the study. Stability of azacitidine was defined in this study as not more than 3% loss of potency from Time 0 (e.g., baseline).
Analytical methods and stability testing: The potency of azacitidine was determined by quantitating the sample against an external standard utilizing reverse phase chromatography with UV detection, in accordance with ICH guidelines. The determination of suspension appearance for redispersibility time was performed visually, in accordance with ICH guidelines.
Stability testing of azacitidine was performed by utilizing validated regulatory accepted analytical methods in accordance with ICH guidelines. These studies were conducted at conditions which encompass long-term, intermediate and accelerated storage of the drug product over a period of time.
Materials and methods: Two lots of sterile commercial scale azacitidine drug product, each nearing the end of their expiry period of 48 months, were used for the study. Each lot of drug product was prepared as a homogeneous mixture of lyophilized powder and placed in labeled vials in preparation for reconstitution. Vials from each lot of azacitidine drug product were then reconstituted with 4 mL of refrigerated (2-8° C.) WFI and immediately placed in refrigerated storage (2-8° C.). After refrigerated storage for 16, 18, 20, and 22 hours, reconstituted vials of azacitidine were removed from refrigeration and placed at 25° C. for 30 minutes. Equilibration time to 25° C. for refrigerated azacitidine suspension was determined to be 30 minutes. […] Stability of azacitidine was defined in this study as not more than 3% loss of potency from Time 0 (e.g., baseline). Sterility of the refrigerated drug product was assessed for reconstituted vials stored at 2-8° C. at end of study.

pKa of 5-azacytidine = type: physicochemical; settings: 25° C.
Description: as §1

[3] = human pharmacokinetics of 5-azacytidine after SC or IV dosing; type: in vivo
[4] = cold water reconstitution of Vidaza with frozen storage, Study 2: HPLC assay, redispersion time, appearance (Example G); type: physicochemical; settings: reconstituted with refrigerated WFI, stored frozen (−20° C.)
Protocol: The study was performed in a similar fashion as Example F, and the cold water reconstituted suspension was then stored under frozen conditions. […] A study to determine the thawing time of the frozen suspensions at 25° C. was also conducted.
Testing was performed using two lots of homogenized drug product. […] The second study analyzed the reconstituted drug product after storage of reconstituted drug product at −20° C. utilizing hold times of 24, 48, and 72 hours followed by a post hold time of 45 minutes at 25° C. to allow for thawing as determined in the first study.
Analytical Methods: The amount of azacitidine and related impurities contained in azacitidine samples was determined utilizing High Performance Liquid Chromatography (HPLC). Two methods were used to complete this testing. […] Reconstitution and redispersibility times were determined in a manner similar to that as described in Example F. Appearance of the suspension was determined visually. […]
An appropriate number of homogenized azacitidine drug product vials were reconstituted with refrigerated WFI as described above, and placed in a freezer (−20° C.). […] After thawing, the contents of the vials were analyzed, for example, by HPLC. […] In addition to the frozen vials, a set of drug product vials were reconstituted and diluted, and immediately analyzed for use as T0 (baseline). […]

[5] = stability of 5-azacytidine suspension reconstituted with cold Water for Injection, stored refrigerated or frozen (Example E); type: physicochemical
Protocol: The reconstituted suspension of 5-azacytidine was then stored either refrigerated or frozen.
In one experiment, the suspension was stored at a temperature of between about 2° C. and about 8° C. for up to 72 hours, and then warmed to about 25° C. over a period of about 30 minutes. In another experiment, the suspension was stored at a temperature of about −20° C. for up to 7 days, and then thawed and stored refrigerated for up to 48 hours, and then warmed to about 25° C. over a period of about 30 minutes.
The dry lyophilized powder was stored in the vials under normal conditions for about 48 months prior to use in this experiment.
The contents of the vials were reconstituted with cold Water for Injection. Prior to reconstitution, the Water for Injection was stored refrigerated for at least 24 hours. All vials were reconstituted into an opaque, white suspension within 20 seconds.
The vials were stored at conditions described above for a certain time. The contents of all vials were re-dispersed into an opaque, white suspension within 20 seconds of shaking after each storage conditions or time points described in this example.

higher-risk MDS = settings: Phase III, subcutaneous, subjects with higher-risk MDS; cited from earlier work
[6] = aqueous degradation kinetics of 5-azacytidine (solution and suspension); type: physicochemical
Protocol: The aqueous degradation kinetics of 5-azacytidine was evaluated. […] At lower temperatures, the degradation of 5-azacytidine is slower.

leukemic mouse model = assay: activity and toxicity of degradation products in a leukemic mouse model; type: in vivo

Nc1ncn([C@H]2C[C@H](O)[C@@H](CO)O2)c(=O)n1 [5-aza-2′-deoxycytidine]
anti-tumor activity in clinical trials (MDS, AML, CML, ALL, NHL): significant anti-tumor activity

Nc1ncn([C@@H]2O[C@H](CO)[C@@H](O)[C@H]2O)c(=O)n1 [5-azacytidine, 4-amino-1-β-D-ribofuranosyl-1,3,5-triazin-2(1H)-one]
anti-tumor activity in clinical trials (MDS, AML, CML, ALL, NHL): significant anti-tumor activity
solubility ([1]; 5° C.): ~6.4 mg/mL (≈ 26.2 mM)
solubility ([1]; 25° C.): ~14 mg/mL (≈ 57.3 mM)
redispersion time ([2]; 16, 18, 20 and 22 hr refrigerated storage and 30 minutes equilibration to 25° C.): 0.3 min
appearance of suspension ([2]; 16, 18, 20 and 22 hr refrigerated storage and 30 minutes equilibration to 25° C., listed as Azacitidine): fine white particles in suspension
appearance of suspension ([2]; 16, 18, 20 and 22 hr refrigerated storage and 30 minutes equilibration to 25° C., listed as azacitidine): fine white particles in suspension and the absence of clumps
stability time (not more than 3% loss of potency from Time 0) ([2]; listed as Azacitidine): about 22 hours
stability time (not more than 3% loss of potency from Time 0) ([2]; listed as azacitidine): 22 h
prolongation of stability time versus usual reconstitution ([2]; cold WFI reconstitution with refrigerated storage, 8 to 22 hours, listed as azacitidine): about a threefold prolongation; also recorded: nearly threefold
maximum loss of potency ([2]; cold water (2-8° C.) reconstitution, refrigerated storage baseline to 22 hr, 30 minutes equilibration to 25° C., each of the two lots): 2.7%
pKa (pKa of 5-azacytidine; higher of the two pKa values): ~10.2
pKa (pKa of 5-azacytidine; lower of the two pKa values): ~2.8
Cmax for SC dosing ([3]; SC): rapid
bioavailability ([3]; in vivo, subcutaneous, SC vs IV, read-out: relative bioavailability of SC dose (relative to IV dose)): ~90%
stability time under frozen storage [4]: up to 72 hours
degradation on frozen storage ([5]; reconstituted with cold Water for Injection, stored frozen, for at least 7 days): no significant degradation
Degradation Rate ([5]; suspension reconstituted with cold Water for Injection, stored refrigerated): about 0.12 % w/w per hour
survival and time to AML transformation or death (higher-risk MDS): significantly prolonged survival and time to AML transformation or death
Degradation Rate ([6]; Solution, 2° C. to 8° C.): 0.7% per hour
Degradation Rate ([6]; Solution, 25° C.): 2.8% per hour
Degradation Rate ([6]; Suspension, 2° C. to 8° C.): 0.1% per hour
Degradation Rate ([6]; Suspension, 25° C.): 2.5% per hour

N=C(NC=O)NC(=O)N[C@@H]1O[C@H](CO)[C@@H](O)[C@H]1O [primary degradation product, N-formylguanyribosylurea]
activity relative to 5-azacytidine (leukemic mouse model; dosed at about 240 mg/m^2): about 25%
toxicity relative to 5-azacytidine (leukemic mouse model; dosed at about 240 mg/m^2): about 25%

NC(N)=NC(=O)N[C@@H]1O[C@H](CO)[C@@H](O)[C@H]1O [secondary degradation product, guanylribosylurea]
activity (leukemic mouse model; dosed at 1440 mg/m^2): neither activity nor toxicity
toxicity (leukemic mouse model; dosed at 1440 mg/m^2): neither activity nor toxicity
